Reference: ChEMBL document CHEMBL1158837, “Cyclohexadepsipeptides from the insect pathogenic fungus Hirsutella nivea BCC 2594” (J Nat Prod, 2005)
Converted amounts (≈) assume the structure as drawn. The source made the active and inactive calls. The rule behind the calls is not given here. Square brackets hold non-standard residues; d marks the D form. Peptide text beside a SMILES is read from it. Hica(2S) = CC(C)C[C@H](O)C(=O)O; NMeL = CN[C@@H](CC(C)C)C(=O)O; Hiv = CC(C)[C@H](O)C(=O)O

Columns and labels:
Vero = assay: Cytotoxicity against african green monkey Vero cells at 50 ug/ml by SRB assay; type: cell-based; conditions: chlorocebus sabaeus
[1] = test system: Mycobacterium tuberculosis; assay: Antitubercular activity against Mycobacterium tuberculosis H37Ra after 4 days by microplate alamar blue assay; type: functional; conditions: 96 h
Plasmodium falciparum [2] = assay: Antimalarial activity against multidrug-resistant Plasmodium falciparum K1 at 20 ug/ml after 42 hrs as reduced [3H]hypoxanthine uptake; type: functional, organism-based
Plasmodium falciparum [3] = assay: Antimalarial activity against multidrug-resistant Plasmodium falciparum K1 after 42 hrs by [3H]hypoxanthine uptake; type: functional, organism-based

Structure (SMILES) | Activity (Vero) | MIC [1] | Activity (Plasmodium falciparum [2]) | IC50 (Plasmodium falciparum [3])
CC(C)C[C@@H]1OC(=O)[C@H](C(C)C)OC(=O)[C@H](CO)NC(=O)[C@H]([C@@H](C)O)NC(=O)[C@H](CC(C)C)N(C)C(=O)[C@H](Cc2ccccc2)NC1=O [HIRSUTATIN A] (HELM PEPTIDE1{F.[meL].T.S.[CC(C)[C@H](O[*:1])C(=O)[*:2]].[CC(C)C[C@H](O[*:1])C(=O)[*:2]]}$PEPTIDE1,PEPTIDE1,1:R1-6:R2$$$V2.0) | Non-toxic | 50 µg/mL (≈ 73.9 µM) | inactive | 
COc1ccc(C[C@@H]2NC(=O)[C@H](CC(C)C)OC(=O)[C@H](C(C)C)OC(=O)[C@H](CO)NC(=O)[C@H]([C@@H](C)O)NC(=O)[C@H](CC(C)C)N(C)C2=O)cc1 [HIRSUTATIN B] (cyclo([Hica(2S)]Y(Me)[NMeL]TS[Hiv])) | Non-toxic | 50 µg/mL (≈ 70.7 µM) |  | 5.8 µg/mL (≈ 8.21 µM)
